Measurements from US20070099962A1, “5,6-Dihydropyrin-2-one compounds useful as inhibitors of thrombin” (priority 2003, published 2007).

Molecular target: T1, Human α-thrombin (Homo sapiens, UniProt P00734)
T1 construct: Human α-thrombin, Sigma Chemical Co. or Hematologic Technologies; purchased Sigma Chemical Co. or Hematologic Technologies
Test: Test B: Determination of Thrombin Inhibition with a Chromogenic, Robotic Assay
Format: biochemical
Settings: chromogenic substrate S-2366, 40 minutes incubation at 37° C.
Description: The thrombin clotting time (TT) is expressed as absolute values (seconds) as well as the ratio of TT without inhibitor (TT0) to TT with inhibitor (TTi). The latter ratios (range 1-0) are plotted against the concentration of inhibitor (log transformed) and fitted to sigmoidal dose-response curves according to the equation y=a/[1+(x/IC50)^s] where: a=maximum range, i.e. 1; s=slope of the dose-response curve; and IC50=the concentration of inhibitor that doubles the clotting time. The calculations are processed on a PC using the software program GraFit Version 3, setting equation equal to: Start at 0, define end=1 (Erithacus Software, Robin Leatherbarrow, Imperial College of Science, London, UK). […]
The thrombin inhibitor potency is measured with a chromogenic substrate method, in a Plato 3300 robotic microplate processor (Rosys AG, CH-8634 Hombrechtikon, Switzerland), using 96-well, half volume microtitre plates (Costar, Cambridge, Mass., USA; Cat No 3690). Stock solutions of test substance in DMSO (72 μL), 0.1-1 mmol/L, are diluted serially 1:3 (24+48 μL) with DMSO to obtain ten different concentrations, which are analysed as samples in the assay. […] The linear absorbance increment during 40 minutes incubation at 37° C. is used for calculation of percentage inhibition for the test samples, as compared to blanks without inhibitor. […]

IC50 [nM] | Structure (SMILES)
240 | CC1=C(CC(=O)NCc2ccc(C(=N)N)cc2)C(=O)N(NS(=O)(=O)Cc2ccccc2)CC1 [2(i), N-(4-Carbamimidoylbenzyl)-2-(4-methyl-2-oxo-1-phenylmethanesulfonylamino-1,2,5,6-tetrahydropyridin-3-yl)acetamide]
25.6 | CC1=C(CC(=O)NCc2ccc(C(=N)N)cc2)C(=O)N(NS(=O)(=O)c2cccc3ccccc23)CC1 [2(iii), N-(4-Carbamimidoylbenzyl)-2-[4-methyl-1-(naphthalene-1-sulfonylamino)-2-oxo-1,2,5,6-tetrahydropyridin-3-yl]acetamide]
